The results in this text go back to patent publication US8680058B2, “Selectively targeted antimicrobial peptides and the use thereof” (priority 2006, dated 2014).

“Also recorded” adds a separate entry of the source. Where two headings read alike, the source gives them in different places. Non-standard residues stand in square brackets, D forms with d. Residues, ends and D or L forms follow the SMILES beside them. No end group written: not given here.

What is called MIC is the smallest concentration in the dilution series that meets the test's criterion for growth inhibition.

For assay [1], the system named is P. aeruginosa ATCC 15692. Nature of the assay: Killing of exogenous P. aeruginosa in pooled CF sputum. It counts as cell-based, Pseudomonas aeruginosa. On the procedure:
3.2 Activity and stability of G10KHc and G10KHc-D in sputum. Determination of peptide antimicrobial effects or activity in sputum was investigated in a similar manner to previous reports (Sajjan et al., 2001). To assay the activity of G10KHc and G10KHc-D against exogenous P. aeruginosa in sputum, collected sputum samples were diluted 1:10 in 10 mM PBS (PBS) and pooled (referred to as pooled sputum). In 100 μL pooled sputum, ATCC 15692 was added to a final concentration of ˜5×10^6 cfu/mL prior to 25 μM peptide addition.
In samples examining the effect of protease inhibitors on peptide activity, pooled sputum samples were pre-treated for 30 min with 1 mM protease inhibitor, either phenylmethylsulphonylfluoride (PMSF), beta-mercaptoethanol (BME), or ethylenediaminetetraacetic acid (EDTA), (all acquired from Sigma-Aldrich), followed by addition of 25 μM G10KHc and ATCC 15692 (˜5×10^6 cfu/mL).
Bacteria surviving peptide treatment were rescued by dilution (1:50) in growth media at 4 h and kept on ice before appropriate dilution and plating on LB agar supplemented with ampicillin (25 μg/mL). After overnight incubation at 37° C., colonies were counted and the surviving cfu/mL quantitated. 100 cfu/mL was considered as the countable limit for all plating procedures. […]

In assay [2] the test system is P. aeruginosa ATCC 15692. Nature of the assay: Effect of rhDNase on STAMP killing in concentrated sputum. Format: cell-based, Pseudomonas aeruginosa. On the procedure: 3.4 Effect of rhDNase on STAMP activity in sputum. Recombinant human DNase, which is commonly used during treatment of CF to reduce sputum viscosity and promote airway clearing (Fuchs et al., 1994), was added to pooled, concentrated sputum samples to determine if G10KHc/PMSF and G10KHc-D activity could be improved during co-treatment under these conditions. To determine the effect of rhDNase (Genentech, San Francisco, Calif.) on STAMP killing ability, individual sputum samples were diluted 1:2 in 100 μg/mL rhDNase, briefly vortexed, and incubated at room temperature for 10 min. Treated samples were then pooled, followed by 1 mM PMSF addition, where appropriate, and incubation for 1 h. 25 μM G10KHc or G10KHc-D was then added with ˜5×10^6 cfu/mL ATCC 15692 and incubated 4 h. Survivors were then rescued and quantitated by plating as described above.

For a further assay, the system named is S. mutans. It counts as cell-based, Streptococcus mutans. On the procedure: (§1) 1.3 Determination of antimicrobial activity. The general antimicrobial activity of peptides against planktonic bacteria was determined by a MIC assay in TH broth (all oral streptococci) (Qi et al., 2005).
(§2) S. mutans, S. gordonii Challis (DL1), and S. sanguinis NY101 strains were grown in Todd Hewitt (TH, Fisher) broth medium at 37° C. under anaerobic conditions (80% N2, 10% CO2, and 10% H2). S. mutans strains UA159 (Ajdic et al., 2002), ATCC 25175, and T8 (Rogers, 1975), are wild-type clinical isolates, while comD is a knockout mutant that was constructed previously from the wild-type UA140 background (Qi et al., 2005). Luciferase expressing S. mutans strain JM11 was constructed from UA140 as described (Merritt et al., 2005). Exponentially growing bacterial cells were diluted to ˜1×10^5 cfu/mL in TH and placed into 96-well plates (Fisher). Peptides were then serially diluted and added to the bacteria.

A further assay has as its system S. sanguinis. Format: cell-based, S. sanguinis NY101. Here is the method:
as §1, §2

Another assay has as its system other oral streptococci. Put plainly: Binding of fluorescently labeled peptides to other oral streptococci. The conditions noted are these: fluorescently labeled peptide. The source says: (§3) 1.2 Fluorescent labeling of peptides and fluorescence microscopy. Aliquots of CSPC16 (SEQ ID NO 2), CSP-fragment peptides (Table 2), and C16G2 (SEQ ID NO 4) were labeled with carboxyfluorescein (Sigma) as described previously (Eckert et al., 2006). After peptide cleavage but prior to the bacterial labeling assay, fluorescence intensity per μM peptide was checked fluorimetrically (λex=488 nm, λem=520 nm VersaFluor, BioRad) and found to be relatively similar (data not shown). To evaluate the level of peptide binding to bacteria, streptococci from an overnight culture (OD600 of 0.7-1.0) were washed with phosphate buffered saline (1×PBS), diluted 1:2 into 1×PBS, and exposed to peptide (16 μM) for 5 min at 25° C. After incubation with peptide, unbound agent was removed from the bacteria by three cycles of centrifugation (5 min, 16,000×g) and resuspension in 1×PBS. Labeling of oral streptococci was evaluated using brightfield and fluorescence microscopy (Nikon E400) at a 40× magnification. The digital images utilized for the semi-quantitative binding assessment were acquired with the factory-supplied software (SPOT, Diagnostics).

A further assay has as its system S. gordonii. It counts as cell-based, S. gordonii Challis (DL1). On the procedure:
as §1, §2

The next assay concerns S. sanguinis biofilms. Put plainly: Single-species biofilm regrowth after peptide exposure, S. sanguinis. Format: cell-based. As to conditions: 25 μM peptide, 1 min exposure. On the procedure:
(§4) 1.5 Examination of antimicrobial activity against single-species biofilms. To initiate biofilm formation, ˜1×10^7 bacteria per well (from overnight cultures) were seeded in TH medium (100 μL) to a 96-well flat-bottom plate. For all streptococci except S. mutans, the medium was supplemented with 0.5% (w/v) mannose and glucose. S. mutans UA159 biofilms were grown with 0.5% (w/v) sucrose. Plates were then centrifuged briefly to pellet the cells, and bacteria were incubated for 3-4 hours at 37° C. for biofilm formation. After incubation, the supernatant was carefully removed and biofilms were treated with 25 μM peptide in 1×PBS or 1×PBS alone for 1 min. The peptide solution was then removed and 100 μL TH was added to further dilute any remaining peptide. To minimize biofilm loss, cells were briefly centrifuged after TH addition, after which the supernatants were removed and fresh medium plus appropriate sugars were returned. Cells were then incubated anaerobically at 37° C. and biofilm growth was monitored over time by measuring absorbance at OD600 with a microplate spectrophotometer (Benchmark Plus, BioRad).

In the next assay the test system is S. gordonii biofilms. Put plainly: Single-species biofilm regrowth after peptide exposure, S. gordonii. It counts as cell-based. As to conditions: 25 μM peptide, 1 min exposure. On the procedure:
as §4

Another assay has as its system S. mutans biofilms. Nature of the assay: Single-species biofilm regrowth after peptide exposure, S. mutans. Format: cell-based, Streptococcus mutans. The conditions noted are these: 25 μM peptide, 1 min exposure. On the procedure: as §4
The next assay concerns S. mutans UA159 and comD. Nature of the assay: Binding of fluorescently labeled peptides to S. mutans (fluorescence microscopy). The conditions noted are these: fluorescently labeled peptide. Also noted: species or system Streptococcus mutans.
Text: To determine whether there was a region within the CSPC16 sequence that was responsible for S. mutans-specific binding, we synthesized a series of fluorescently labeled CSPC16 fragments, and analyzed their ability to bind to S. mutans. The following strategies were utilized in dissecting the CSPC16 sequence (Table 2): First, a series of fragments were constructed by generating deletions of 3 or 4 amino acids, from the N to C terminus, across the CSPC16 sequence (C16-1 to C16-5). Peptides lacking larger portions of the C or N termini of CSPC16 were also synthesized (C16-6 to C16-12). Additionally, peptides with Arg to […] (a positive to negative change in charge) (C16-4) or Phe to Gly substitutions (for a general decrease in hydrophobicity) (C16-3), as well as peptides representing a 4-residue Ala scan of the C16 sequence were constructed (C 16-15 to C16-18). […] These peptides include C16 (SEQ ID NO 1), C16-3 (SEQ ID NO 39), C16-4 (SEQ ID NO 40), C16-5 (SEQ ID NO 41), C16-6 (SEQ ID NO 42), C16-11 (SEQ ID NO 47), C16-12 (SEQ ID NO 5), C16-16 (SEQ ID NO 51), C16-17 (SEQ ID NO 52), and C16-18 (SEQ ID NO 53).
as §3

Turning to `O=S(=O)(F)Cc1ccccc1` [PMSF, phenylmethylsulphonylfluoride, reference compound], in the assay on P. aeruginosa ATCC 15692 [1] (1 mM), the “effect of inhibitor alone on P. aeruginosa viability” value was “only a small affect on P. aeruginosa viability”.
For the molecule `CC[C@@H](C)[C@@H](NC(=O)CNC(=O)[C@@H](CCCCN)NC(=O)[C@@H](CCCNC(=N)N)NC(=O)[C@H](NC(=O)[C@H](NC(=O)[C@@H](CCCNC(=N)N)NC(=O)[C@@H](CCCNC(=N)N)NC(=O)[C@@H](CC(C)C)NC(=O)[C@@H](CC(N)=O)NC(=O)[C@@H](CCCCN)NC(=O)[C@@H](CO)NC(=O)CNC(=O)CNC(=O)[C@@H](CO)NC(=O)CNC(=O)CNC(=O)[C@@H](Cc1c[nH]cn1)NC(=O)[C@@H](CCCCN)NC(=O)[C@@H](CCCNC(=N)N)NC(=O)[C@@H](Cc1c[nH]cn1)NC(=O)[C@@H](CCCCN)NC(=O)[C@@H](CCCNC(=N)N)NC(=O)[C@@H](Cc1c[nH]cn1)NC(=O)[C@@H](CCCCN)NC(=O)[C@@H](CCCNC(=N)N)NC(=O)[C@@H](Cc1c[nH]cn1)NC(=O)[C@@H](CCCCN)NC(=O)[C@H](N)CCCCN)[C@H](C)CC)[C@H](C)CC)C(=O)N[C@H](Cc1c[nH]cn1)C(=O)N[C@@H](C(=O)N[C@@H](C(=O)N[C@H](CCCCN)C(=O)N[C@H](CCCCN)C(=O)N[C@H](Cc1ccc(O)cc1)C(=O)NCC(=O)O)[C@H](C)CC)[C@H](C)CC` [Peptide G10KHc-D] (H-[dK][dK][dH][dR][dK][dH][dR][dK][dH][dR][dK][dH]GG[dS]GG[dS][dK][dN][dL][dR][dR][dI][dI][dR][dK]G[dI][dH][dI][dI][dK][dK][dY]G-OH; N-terminus and C-terminus assumed), the “recovered cfu/mL as percent of untreated control” value in the assay with P. aeruginosa ATCC 15692 [2] (concentrated sputum not treated with rhDNase) is around 30%. The “reduction of recovered P. aeruginosa compared to untreated samples” value in the assay with P. aeruginosa ATCC 15692 [1] (25 μM, 4 h, no inhibitor) is 3-4 log10.
As to TFFRLFNR-OH [CSPM8, TFFRLFNR], the minimal inhibitory concentration (MIC) against S. mutans (S. mutans 25175), in the assay on S. mutans (S. mutans T8), against S. mutans (S. mutans UA159), in the assay with S. mutans (S. mutans comD), in the assay with S. sanguinis and against S. gordonii was above 60 µM in each case. For the same molecule, the “binding to other oral streptococci” value in the assay on other oral streptococci is “little or no binding”.
Turning to “TFFRLFNRSFTQALGK-OH [CSPC16, TFFRLFNRSFTQALGK]”, the MIC in the assay on S. mutans (S. mutans 25175), against S. mutans (S. mutans T8), against S. mutans (S. mutans UA159), against S. mutans (S. mutans comD), in the assay on S. sanguinis and in the assay on S. gordonii was above 60 µM throughout. Further, the “binding to other oral streptococci” value in the assay with other oral streptococci is recorded as “not to other oral streptococci”. Also, the entries for the “biofilm re-growth after treatment (OD600)” value in the assay with S. sanguinis biofilms, in the assay with S. gordonii biofilms and in the assay with S. mutans biofilms were “grew similarly to untreated biofilms”, “grew similarly to untreated biofilms” and “unaffected”, respectively. In addition, in the assay with S. mutans UA159 and comD, the “binding to S. mutans (in words)” value was “detected as bound; also recorded: could specifically bind to S. mutans”.

B1: rhDNase: Recombinant human DNase (Genentech), sputum mucolytic agent (protein, UniProt P24855 23-282, looked up)
Deoxyribonuclease-1: LKIAAFNIQTFGETKMSNATLVSYIVQILSRYDIALVQEVRDSHLTAVGKLLDNLNQDAPDTYHYVVSEPLGRNSYKERYLFVYRPDQVSAVDSYYYDDGCEPCGNDTFNREPAIVRFFSRFTEVREFAIVPLHAAPGDAVAEIDALYDVYLDVQEKWGLEDVMLMGDFNAGCSYVRPSQWSSIRLWTSPTFQWLIPDSADTTATPTHCAYDRIVVAGMLLRGAVVPDSALPFNFQAAYGLSDQLAQAISDHYPVEVMLK
Regarding B1, the “effect of rhDNase treatment alone on P. aeruginosa” value in the assay on P. aeruginosa ATCC 15692 [2] (100 μg/mL rhDNase) is reported as “not affected”.
